Measured values: US4820834A, “Benzodiazepine analogs” (priority 1987, dated 1989)
Read-outs that look alike come from different tables or passages of the source.

Legend:
CCK receptor (pancreas) = target: T1, CCK receptor (pancreas) (Rattus norvegicus, UniProt P30551); assay: CCK Receptor Binding (Pancreas): inhibition of ^125 I-CCK-33 binding; parameters: species or system Male Sprague-Dawley rats; conditions: rat pancreas membranes, ^125 I-CCK-33, 37° C., 30 minutes
T1 construct: The whole pancreas was dissected free of fat tissue and was homogenized; from tissue; host or cells: rat pancreas membranes (Sprague-Dawley)
T1 sequence (P30551 1-444): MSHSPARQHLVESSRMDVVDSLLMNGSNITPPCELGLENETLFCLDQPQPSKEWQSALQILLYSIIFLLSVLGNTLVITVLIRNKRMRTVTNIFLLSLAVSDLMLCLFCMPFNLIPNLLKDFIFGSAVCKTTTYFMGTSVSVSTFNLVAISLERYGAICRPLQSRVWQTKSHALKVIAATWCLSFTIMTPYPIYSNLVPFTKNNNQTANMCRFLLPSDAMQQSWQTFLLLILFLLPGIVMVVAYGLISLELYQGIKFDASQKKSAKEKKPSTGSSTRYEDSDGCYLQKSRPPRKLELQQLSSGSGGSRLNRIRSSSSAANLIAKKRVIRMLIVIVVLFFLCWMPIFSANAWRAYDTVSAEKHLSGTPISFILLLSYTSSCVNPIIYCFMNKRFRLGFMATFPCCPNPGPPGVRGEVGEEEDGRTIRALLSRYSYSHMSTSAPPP
Description: 1. CCK Receptor Binding (Pancreas)
CCK-33 was radiolabeled with ^125 I-Bolton Hunter reagent (2000 Ci/mmole) as described by Sankara et al. (J. Biol. Chem. 254: 9349-9351, 1979). Receptor binding was performed according to Innis and Snyder (Proc. Natl. Acad. Sci. 77: 6917-6921, 1980) with the minor modification of adding the additional protease inhibitors, phenylmethane sulfonyl fluoride and o-phenanthroline.
Male Sprague-Dawley rats (200-350 g) were sacrificed by decapitation. The whole pancreas was dissected free of fat tissue and was homogenized in 20 volumes of ice-cold 50 mM, Tris HCl (pH 7.7 at 25° C.) with a Brinkmann Polytron PT 10. The homogenates were centrifuged at 48,000 g for 10 min. Pellets were resuspended in Tris Buffer, centrifuged as above and resuspended in 200 volumes of binding assay buffer (50 mM Tris HCl, pH 7.7 at 25° C., 5 mM dithiothrietol, 0.1 mM bacitracin, 1.2 mM phenylmethane sulfonyl fluoride and 0.5 mM o-phenanthroline). […] All assays were run in duplicate or triplicate. The reaction mixtures were incubated at 37° C. for 30 minutes and centrifuged in a Beckman Microfuge (4 minutes) immediately after adding 1 ml of ice-cold incubation buffer. The supernatant was aspirated and discarded, pellets were counted with a Beckman gamma 5000. For Scatchard analysis (Ann. N.Y. Acad. Sci. 51: 660, 1949), ^125 I-CCK-33 was progressively diluted with increasing concentrations of CCK-33.

[1] = target: T2, CCK receptor (brain, cerebral cortex) (Cavia porcellus, UniProt H0VZC5); assay: biochemical; assay type: binding, Male Hartley guinea pigs; conditions: guinea pig cerebral cortex, ^125 I-CCK-33, 25° C., 2 hours
T2 construct: Cerebral cortex was dissected and used as a receptor source; from tissue; host or cells: guinea pig cerebral cortex membranes (male Hartley)
T2 sequence (H0VZC5 1-426): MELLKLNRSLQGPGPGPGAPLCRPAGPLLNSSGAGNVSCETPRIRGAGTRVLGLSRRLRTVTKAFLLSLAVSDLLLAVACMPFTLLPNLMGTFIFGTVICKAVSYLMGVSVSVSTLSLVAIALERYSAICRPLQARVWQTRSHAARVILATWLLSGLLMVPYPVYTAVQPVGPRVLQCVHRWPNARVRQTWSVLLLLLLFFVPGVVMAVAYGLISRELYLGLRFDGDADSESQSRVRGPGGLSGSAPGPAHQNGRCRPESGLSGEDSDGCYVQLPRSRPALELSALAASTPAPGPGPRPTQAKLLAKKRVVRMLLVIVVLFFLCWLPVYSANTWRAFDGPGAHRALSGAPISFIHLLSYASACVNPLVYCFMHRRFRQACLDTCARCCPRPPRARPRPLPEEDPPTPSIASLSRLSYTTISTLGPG
In short: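 Guinea pig cerebral cortex homogenate as receptor source, with radiolabeled CCK-33 in HEPES buffer containing MgCl2, bacitracin, EGTA and 0.4% BSA. Incubation 2 h at 25°C; bound ligand pelleted by centrifugation and gamma-counted.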

[2] = target: T3, Gastrin receptor (gastric glands) (Cavia porcellus, UniProt H0VZC5); assay: Gastrin Receptor Binding in Guinea Pig Gastric Glands; parameters: species or system guinea pig (male Hartley); conditions: ^125 I-gastrin, 25° C., 30 minutes, read-out: IC50 ^125 I-Gastrin Gastric Glands
T3 construct: The washed guinea pig gastric glands prepared as above were resuspended; from tissue; host or cells: guinea pig gastric mucosal glands (male Hartley)
T3 sequence (H0VZC5 1-426): T2 sequence (H0VZC5 1-426)

Structure (SMILES)	IC50 (CCK receptor (pancreas); IC50 ^125 I-CCK Pancreas) [µM]	further results
O=C1Nc2ccc(Cl)cc2C(c2ccccc2)=NC1Cc1cccc2ccccc12 (racemic) [Example 17, 7-Chloro-1,3-dihydro-3(RS)-(1-naphthyl)methyl-5-phenyl-2H-1,4-benzodiazepin-2-one]	23	IC50 ([1]; IC50 ^125 I-CCK Brain): 100 µM
O=C1Nc2ccc(Cl)cc2C(c2ccccc2)=NC1Cc1ccc2ccccc2c1 (racemic) [Example 18, 7-Chloro-1,3-dihydro-3(RS)-(2-naphthyl)methyl-5-phenyl-2H-1,4-benzodiazepin-2-one]	49	IC50 ([1]; IC50 ^125 I-CCK Brain): 61 µM
O=C1Nc2ccccc2C(c2ccccc2F)=NC1Cc1cccs1 (racemic) [Example 19, 1,3-Dihydro-5-(2-fluorophenyl)-3(RS)-(2-thienyl)methyl-2H-1,4-benzodiazepin-2-one]	33	IC50 ([1]; IC50 ^125 I-CCK Brain): > 100 µM
O=C1Nc2ccccc2C(c2ccccc2F)=NC1c1ccsc1 (racemic) [Example 20, 1,3-Dihydro-5-(2-fluorophenyl)-3(RS)-(3-thienyl)-2H-1,4-benzodiazepin-2-one]	> 100	
O=C1Nc2ccccc2C(c2ccccc2F)=NC1Cc1c[nH]c2ccc(F)cc12 (racemic) [Example 59, 1,3-Dihydro-3(RS)-[3'-(5'-fluoroindolyl)methyl]-5-o-fluorophenyl-2H-1,4-benzpdiazepin-2-one]	1.4	
O=C1Nc2ccccc2C(c2ccccc2F)=NC1Cc1c[nH]c2cc(F)ccc12 (racemic) [Example 60, 1,3-Dihydro-3(RS)-[3'-(6'-fluoroindolyl)methyl]-5-o-fluorophenyl-2H-1,4-benzodiazepin-2-one]	1.3	IC50 ([1]; IC50 ^125 I-CCK Brain): 100 µM
O=C1Nc2ccccc2C(c2ccccc2F)=N[C@@H]1Cc1c[nH]c2ccccc12 [2 & 3]	0.4	
CN1C(=O)[C@@H](Cc2cn(C)c3ccccc23)N=C(c2ccccc2F)c2ccccc21 [4a & 44]	0.36	
CN1C(=O)/C(=C\c2ccsc2)N=C(c2ccccc2)c2ccccc21 [95 E]	25	
CN1C(=O)/C(=C/c2ccsc2)N=C(c2ccccc2)c2ccccc21 [95 Z]	100	
CN1C(=O)[C@@H](Cc2c[nH]c3ccccc23)N=C(c2ccccc2F)c2ccccc21 [Example 4b, 1,3-dihydro-5-(2-fluorophenyl)-3(R)-(3'-indolyl) methyl-1-methyl-2H-1,4-benzodiazepin-2-one]	0.27	IC50 ([1]; IC50 ^125 I-CCK Brain): 18 µM
O=C1Nc2ccc(Cl)cc2C(c2ccccc2)=N[C@@H]1Cc1c[nH]c2ccccc12 [Example 5, 7-Chloro-1,3-dihydro-3(R)-(3'-indolyl)methyl-5-phenyl-2H-1,4-benzodiazepin-2-one]	3.4	IC50 ([1]; IC50 ^125 I-CCK Brain): 100 µM
O=C1Nc2ccccc2C(c2ccccc2)=N[C@@H]1Cc1c[nH]c2ccccc12 [Example 6, 1,3-Dihydro-3(R)-(3'-indolyl)methyl-5-phenyl-2H-1,4-benzodiazepin-2-one]	1.2	IC50 ([1]; IC50 ^125 I-CCK Brain): 50 µM
Fc1ccccc1C1=N[C@H](Cc2c[nH]c3ccccc23)CNc2ccccc21 [Example 12, 1,3-Dihydro-5-(2-fluorophenyl)-3(R)-(3'-indolyl)methyl-2H-1,4-benzodiazepin]	4	
O=C1Nc2ccc(Cl)cc2C(c2ccccc2)=N[C@@H]1Cc1ccccc1 [Example 13, 7-Chloro-1,3-dihydro-3(R)-benzyl-5-phenyl-2H-1,4-benzodiazepin-2-one]	80	
O=C1Nc2ccc(Cl)cc2C(c2ccccc2)=N[C@@H]1Cc1ccc(OCc2ccccc2)cc1 [Example 16, 7-Chloro-1,3-dihydro-3(R)-(4-benzyloxybenzyl)-5-phenyl-2H-1,4-benzodiazepin-2-one]	> 100	IC50 ([1]; IC50 ^125 I-CCK Brain): > 100 µM
CC1=N[C@H](Cc2c[nH]c3ccccc23)C(=O)Nc2ccccc21 [Example 29, 1,3-Dihydro-3(R)-(3'-indolyl)methyl-5-methyl-2H-1,4-benzodiazepin-2-one]		IC50 (CCK receptor (pancreas); read-out: IC50 ^125 I-CCK Pancreas): 48 µM
O=C1Nc2ccccc2C(c2ccccc2F)=N[C@H]1Cc1c[nH]c2ccccc12 [Example 32, 1,3-Dihydro-5-(2-fluorophenyl)-3(S)-(3'-indolyl) methyl-2H-1,4-benzodiazepin-2-one]	10.6	
O=C1[C@@H](Cc2c[nH]c3ccccc23)N=C(c2ccccc2F)c2ccccc2N1CC1CC1 [Example 37, 1-Cyclopropylmethyl-1,3-dihydro-5-(2-fluorophenyl)-3(R)-(3'-indolyl)methyl-2H-1,4-benzodiazepin-2-one]	2.2	
CCCCCN1C(=O)[C@@H](Cc2c[nH]c3ccccc23)N=C(c2ccccc2F)c2ccccc21 [Example 38, 1,3-Dihydro-5-(2-fluorophenyl)-3(R)-(3'-indolyl) methyl-1-pentyl-2H-1,4-benzodiazepin-2-one]	100	
O=C1[C@@H](Cc2c[nH]c3ccccc23)N=C(c2ccccc2F)c2ccccc2N1CC(F)(F)F [Example 40, 1,3-Dihydro-5-(2-fluorophenyl)-3(R)-(3'-indolyl)methyl-1-(2,2,2-trifluoroethyl)-2H-1,4-benzodiazepin-2-one]	3.6	
CN(C)CCN1C(=O)[C@@H](Cc2c[nH]c3ccccc23)N=C(c2ccccc2F)c2ccccc21 [Example 41, 1,3-Dihydro-1-(2-dimethylaminoethyl)-5-(2-fluorophenyl) 3(R)-(3'-indolyl)methyl-2H-1,4-benzodiazepin-2-one]	100	
O=C(O)c1ccccc1C1=N[C@H](Cc2c[nH]c3ccccc23)C(=O)Nc2ccccc21 [Example 58, 5-o-Carboxyphenyl-1,3-dihydro-3(R)-(3+-indolyl)methyl-2H-1,4-benzodiazepin-2-one]	18	
NC(=O)CN1C(=O)[C@@H](Cc2c[nH]c3ccccc23)N=C(c2ccccc2F)c2ccccc21 [Example 123, 1-Carboxamidomethyl-1,3-dihydro-3R-(3-indolylmethyl)-5-(2-fluorophenyl)-2H-1,4-benzodiazepin-2-one]	2.1	
O=C1Nc2ccccc2C(c2ccccc2)=NC1CC1CNc2ccccc21 (stereo not drawn) [Example 199, 3-((2,3-Dihydro-1H-indol-3-yl)methyl)-1,3-dihydro-5-phenyl-2H-1,4-benzodiazepin-2-one]	3.2	
CC(C)CC(NC(=O)OC(C)(C)C)C(=O)N1CC(CC2N=C(c3ccccc3)c3ccccc3NC2=O)c2ccccc21 (stereo not drawn) [Example 225, (1-((3-((2,3-Dihydro-2-oxo-5-phenyl-1H-1,4-benzodiazepin-3-yl)methyl)-2,3-dihydro-1H-indol-1-yl)carbonyl)-3-methylbutyl)-carbamic acid-1,1-dimethylethyl ester]	4.7	
CN1C(=O)[C@@H](NC(=O)c2ccccc2I)N=C(c2ccccc2)c2ccccc21 [Example 283, (S)-N-(2,3-Dihydro-1-methyl-2-oxo-5-phenyl-1H-1,4-benzodiazepin-3-yl)-2-iodobenzamide]		IC50 [2]: 66 µM; IC50 ([1]; read-out: IC50 ^125 I-CCK Brain): 71 µM
